# Experimental data: article PMC7012052, “Discovery of antimicrobial compounds targeting bacterial type FAD synthetases” (Journal of Enzyme Inhibition and Medicinal Chemistry, 2017)
# Structures can show the parent of a compound that is named as a salt. Where two headings read alike, the source gives them in different places.
# Columns and labels:
# [1] = molecular target: T1, CaFADS RFK activity (Corynebacterium ammoniagenes, UniProt Q59263); assay: RFK activity of CaFADS in the presence of HTS hits (flavins separated by HPLC); assay type: biochemical; settings: pH 7, read-out: % Residual RFK activity
# T1 construct: Recombinant CaFADS was overexpressed in BL21 (DE3) E. coli cells and purified as previously described; made in house; host or cells: E. coli BL21 (DE3)
# T1 sequence (Q59263 whole entry): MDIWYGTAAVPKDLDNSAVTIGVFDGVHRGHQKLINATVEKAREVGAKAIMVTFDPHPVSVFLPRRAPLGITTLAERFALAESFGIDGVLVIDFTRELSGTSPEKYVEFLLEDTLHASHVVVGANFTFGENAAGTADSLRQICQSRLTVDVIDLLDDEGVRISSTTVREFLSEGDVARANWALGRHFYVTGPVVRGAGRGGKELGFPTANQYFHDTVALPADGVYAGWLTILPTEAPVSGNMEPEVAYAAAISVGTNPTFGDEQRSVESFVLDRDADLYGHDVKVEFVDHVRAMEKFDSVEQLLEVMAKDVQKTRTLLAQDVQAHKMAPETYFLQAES
# Description: (§1) Then, the RFK and FMNAT reactions were individually assayed in the presence of the HTS hits at 25 °C. Reaction mixtures contained 50 µM ATP, 5 µM RF, 0.4 µM CaFADS in 20 mM PIPES, pH 7.0, 0.8 mM MgCl2, when assaying the RFK activity, and 50 µM ATP, 10 µM FMN, 0.4 µM CaFADS in 20 mM PIPES, pH 7.0, 10 mM MgCl2 when measuring the FMNAT reaction. […] Finally, reactions were stopped by boiling the samples at 100 °C for 5 min, and the precipitated protein was eliminated through centrifugation. The transformation of RF into FMN or FAD was evaluated through flavins separation by HPLC, as previously described. […] When assaying the HTS hits against the FMNAT activity of SpnFADS, similar conditions were used but samples contained 3 mM sodium dithionite to maintain the flavin in its reduced state. Data were processed as previously reported. All the experiments were performed in triplicate.
# [2] = tested on: S. pneumoniae ATCC 49619; assay: MIC by resazurin microplate assay (broth microdilution); assay type: cell-based, Streptococcus pneumoniae; settings: read-out: Minimal inhibitory concentration (MIC) S. pneumoniae
# [3] = tested on: C. ammoniagenes ATCC 6872; assay: as above; assay type: cell-based, Corynebacterium ammoniagenes; settings: for MIC: Corynebacterium ammoniagenes, ATCC6872, 16 h
# [4] = tested on: M. tuberculosis ATCC 27,294; assay: as above; assay type: cell-based, Mycobacterium tuberculosis; settings: for MIC: read-out: Minimal inhibitory concentration (MIC) M. tuberculosis
# [5] = molecular target: T2, CaFADS FMNAT activity (Corynebacterium ammoniagenes, UniProt Q59263); assay: FMNAT activity of CaFADS: residual activity, IC50, inhibition mechanism (HPLC); assay type: biochemical; settings: for remaining activity at 250 µM: pH 7, read-out: % Residual FMNAT activity; for remaining activity at 50 µM: read-out: Residual activity (FMNAT); for Ki: global Lineweaver–Burk fit
# T2 construct: Recombinant CaFADS was overexpressed in BL21 (DE3) E. coli cells and purified as previously described; made in house; host or cells: E. coli BL21 (DE3)
# T2 sequence (Q59263 whole entry): as above
# Description: as §1
# (§2) Experiments were performed and analysed through HPLC as described above. Positive controls (without any hit compound) were included in every reaction set. DMSO concentration was kept at 2.5% in all samples. All the experiments were performed in triplicate.
# All the experiments were carried out in 20 mM PIPES, 10 mM MgCl2, pH 7.0, 2.5% DMSO at 25 °C, being the final reaction volume 500 µl. The reactions were initiated by addition of CaFADS at a final concentration of ∼40 nM, followed by 1 min incubation. The flavin composition of the supernatant was analysed as previously described. All the experiments were performed in triplicate. The effect of the inhibitors on Km and Vmax was determined by fitting the data sets to the Michaelis–Menten model. Additionally, data were globally fit to Lineweaver–Burk equations for competitive, uncompetitive, non-competitive or mixed inhibition, yielding Ki, as well as Ki′ when applying, for each compound (Equations (1–4), respectively).
# [6] = molecular target: SpnFADS FMNAT activity (Streptococcus pneumoniae, UniProt A0A0H2UPY5); assay: biochemical; settings: SpnFADS, 25 °C; for IC50: compounds assayed 0–100 μM, read-out: FMNAT activity IC50
# SpnFADS FMNAT activity, sequence (A0A0H2UPY5 entry or part of it): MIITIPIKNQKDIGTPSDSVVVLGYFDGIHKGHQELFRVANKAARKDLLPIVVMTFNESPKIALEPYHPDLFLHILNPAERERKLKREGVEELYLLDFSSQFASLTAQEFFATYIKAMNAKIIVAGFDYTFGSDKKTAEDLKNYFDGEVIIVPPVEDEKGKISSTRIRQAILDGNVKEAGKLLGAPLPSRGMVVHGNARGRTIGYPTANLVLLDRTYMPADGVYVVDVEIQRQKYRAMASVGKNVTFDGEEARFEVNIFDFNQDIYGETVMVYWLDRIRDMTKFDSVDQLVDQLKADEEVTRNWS
# Description: as §1, §2
# [7] = molecular target: SpnFADS RFK activity (Streptococcus pneumoniae, UniProt A0A0H2UPY5); assay: biochemical
# SpnFADS RFK activity, sequence (A0A0H2UPY5 entry or part of it): as above
# Description: as §1, §2
# [8] = molecular target: T3, CaFADS (Corynebacterium ammoniagenes, UniProt Q59263); assay: Isothermal titration calorimetry (ITC) of hits binding to CaFADS; settings: ITC 25 °C, for 24: Site 1–2
# T3 construct: Recombinant CaFADS was overexpressed in BL21 (DE3) E. coli cells and purified as previously described; made in house; host or cells: E. coli BL21 (DE3)
# T3 sequence (Q59263 whole entry): as the sequence (Q59263 whole entry) above
# Description: ITC experiments were performed to characterise the protein’s affinity for the selected compounds, as also the thermodynamic parameters that drive the interaction. Experiments were carried out in an AutoITC200 (MicroCal) thermostated at 25 °C. In these experiments, ∼400 µM of each compound were used to titrate ∼25 µM CaFADS contained in a 200 µL cell. However, when saturation of the protein was not reached, higher concentrations of compounds were employed. The titrations were performed by stepwise injections of the titrating compound. Up to 19 injections of 2 µl were added to the cell sample and mixed using a 1000 rpm stirrer syringe. The compounds and the protein were dissolved in 20 mM PIPES, pH 7.0, 10 mM MgCl2 and degassed prior to titration. DMSO was added to the protein and ligand samples, until reach a final concentration of 3%. The association constant (Ka), the enthalpy variation (ΔH) and the binding stoichiometry (N), were obtained through non-lineal regression of the data to a model for one or two independent binding sites, implemented in Origin 7.0 (OriginLab) as previously described[27]^,[29]. The entropic contribution (−TΔS), the Gibbs free energy (ΔG) and the dissociation constant (Kd) were obtained through essential thermodynamic equations.
# [9] = Streptococcus pneumoniae, ATCC49619, 10 h
# [10] = read-out: Minimal inhibitory concentration (MIC) C. ammoniagenes
# [11] = Mycobacterium tuberculosis, ATCC27, 144 h
# [12] = 100 μM of each compound, n = 3, mean ± SD, read-out: FMNAT activity Res. activity
# [13] = SpnFADS, compounds assayed 0–100 μM, 25 °C, read-out: RFK activity IC50
# [14] = read-out: RFK activity Res. activity
# [15] = read-out: Minimal inhibitory concentration (MIC) C. ammoniagenes, assayed 0.125–64 μM, 16 h at 37 °C, BHI
# [16] = SpnFADS, 100 μM of each compound, 25 °C, n = 3, mean ± SD, read-out: RFK activity Res. activity
# [17] = assayed 0.125–64 μM, 6 days at 37 °C, Middlebrook 7H9
compound,measurement,setting,value
Cc1c(Cl)cccc1Nc1ccccc1C(=O)O [HTS hit 2],remaining activity at 250 µM,[1],≥ 75%
same,MIC,[2]; [9],> 64 µM
same,MIC,[3]; [10],> 64 µM
same,MIC,[4]; [11],> 64 µM
same,IC50,[5],8.9 ± 1 µM
same,remaining activity at 250 µM,[5],≤ 5%
same,remaining activity at 50 µM,[5],41.1 ± 5.2%
same,remaining activity at 100 µM,[6]; [12],100 ± 12%
same,IC50,[7]; [13],> 100 µM
same,remaining activity at 100 µM,[7]; [14],78 ± 10%
"O=C(O)c1cc(/N=N/c2ccc(S(=O)(=O)Nc3ccccn3)cc2)ccc1O [HTS hit 8, sulfasalazine]",remaining activity at 250 µM,[1],≥ 75%
same,remaining activity at 250 µM,[5],5 to 50%
"CCCCCCCCCCCCCCCC[N+](C)(C)CCN(Cc1ccc(OC)cc1)c1ncccn1 [HTS hit 9, thonzonium bromide]",remaining activity at 250 µM,[1],≤ 5%
same,MIC,[2]; [9],1 to 2 µM
same,MIC,[3]; [15],< 2 µM
same,MIC,[3]; [10],2 µM
same,MIC,[4]; [11],16 µM
same,remaining activity at 250 µM,[5],≤ 5%
same,activity at 100 µM,[6]; [12],7 ± 1%
same,IC50,[6],78 ± 6 µM
same,activity at 100 µM,[7]; [16],0%
same,IC50,[7]; [13],6 ± 1 µM
O=C(O)c1cccnc1Nc1cccc(C(F)(F)F)c1 [HTS hit 11],remaining activity at 250 µM,[1],≥ 75%
same,MIC,[2]; [9],> 64 µM
same,MIC,[3]; [10],> 64 µM
same,MIC,[4]; [11],> 64 µM
same,IC50,[5],9 ± 1.3 µM
same,remaining activity at 250 µM,[5],≤ 5%
same,remaining activity at 50 µM,[5],34.6 ± 4.9%
"CCc1oc2ccccc2c1C(=O)c1cc(Br)c(O)c(Br)c1 [HTS hit 17, benzbromarone]",remaining activity at 250 µM,[1],≥ 75%
same,MIC,[2]; [9],> 64 µM
same,MIC,[3]; [15],2 to 16 µM
same,MIC,[3]; [10],8 µM
same,MIC,[4]; [11],> 64 µM
same,IC50,[5],12.8 ± 3.4 µM
same,remaining activity at 250 µM,[5],≤ 5%
same,remaining activity at 50 µM,[5],33.5 ± 10.1%
"CN1CCCN=C1/C=C/c1cccc(O)c1 [HTS hit 19, oxantel pamoate]",remaining activity at 250 µM,[1],≥ 75%
same,IC50,[5],20.8 ± 2.6 µM
same,remaining activity at 250 µM,[5],≤ 5%
same,remaining activity at 50 µM,[5],43.3 ± 3.9%
"Cc1c(Nc2ncccc2C(=O)O)cccc1C(F)(F)F [HTS hit 31, flunixin meglumine]",N (binding stoichiometry),[8]; 3% DMSO,≈ 1
same,ΔG,[8]; average value where N ≈ 2,-6.2 ± 0.6 kcal/mol
same,ΔH,[8]; average value where N ≈ 2,-7.2 ± 0.4 kcal/mol
same,−TΔS,[8]; average value where N ≈ 2,1.1 ± 0.1 kcal/mol
same,Kd,"[8]; Kd, 3% DMSO, average value for two hit molecules where N ≈ 2",30.9 ± 2.8 µM
same,remaining activity at 250 µM,[1],≥ 75%
same,MIC,[2]; [9],> 64 µM
same,MIC,[3]; [15],> 64 µM
same,MIC,[3]; [10],32 to 64 µM
same,MIC,[4]; [11],> 64 µM
same,IC50,[5],6.6 ± 0.6 µM
same,Inhibition mechanism,"[5]; CaFADS FMNAT, saturating ATP (regarding the FMN substrate)",Non-competitive
same,Inhibition mechanism,"[5]; CaFADS FMNAT, saturating FMN (regarding the ATP substrate)",Mixed
same,K'i,"[5]; CaFADS FMNAT, saturating FMN, varying ATP, binding to the CaFADS-ATP complex",18.4 ± 4.0 µM
same,Ki,"[5]; CaFADS FMNAT, saturating ATP, varying FMN",90 ± 30 nM
same,Ki,"[5]; CaFADS FMNAT, saturating FMN, varying ATP",3500 ± 1000 nM
same,remaining activity at 250 µM,[5],≤ 5%
same,remaining activity at 50 µM,[5],24.5 ± 1.9%
same,apparent kcat,"[5]; saturating ATP, varying FMN, inhibitor 1 μM",24.6 ± 2.9 min⁻¹
same,apparent kcat,"[5]; saturating ATP, varying FMN, inhibitor 4 μM",18.1 ± 1.4 min⁻¹
same,apparent kcat,"[5]; saturating ATP, varying FMN, inhibitor 5 μM",6.4 ± 1.2 min⁻¹
same,apparent kcat,"[5]; saturating ATP, varying FMN, inhibitor 7 μM",3.0 ± 0.4 min⁻¹
same,apparent kcat,"[5]; saturating ATP, varying FMN, inhibitor 10 μM",3.0 ± 0.4 min⁻¹
same,apparent kcat,"[5]; saturating FMN, varying ATP, inhibitor 4 μM",19.7 ± 1.0 min⁻¹
same,apparent kcat,"[5]; saturating FMN, varying ATP, inhibitor 5 μM",17.3 ± 1.1 min⁻¹
same,apparent kcat,"[5]; saturating FMN, varying ATP, inhibitor 7 μM",16.9 ± 0.6 min⁻¹
same,apparent kcat,"[5]; saturating FMN, varying ATP, inhibitor 10 μM",15.3 ± 1.3 min⁻¹
same,apparent kcat,"[5]; saturating FMN, varying ATP, inhibitor 12 μM",13.8 ± 1.0 min⁻¹
"CC/C(=C(/CC)c1ccc(O)cc1)c1ccc(O)cc1 [HTS hit 32, diethylstilbestrol]",remaining activity at 250 µM,[1],50 to 75%
same,MIC,[2]; [9],64 µM
same,MIC,[3]; [15],2 to 16 µM
same,MIC,[3]; [10],8 µM
same,MIC,[4]; [11],> 64 µM
same,remaining activity at 250 µM,[5],5 to 50%
"CCCCC(CC)CNC(=N)NC(=N)NCCCCCCNC(=N)NC(=N)NCC(CC)CCCC (stereo not drawn) [HTS hit 33, alexidine dihydrochloride]",remaining activity at 250 µM,[1],≤ 5%
same,MIC,[2]; [9],0.5 µM
same,MIC,[3]; [15],< 2 µM
same,MIC,[3]; [10],0.125 µM
same,MIC,[4]; [11],2 to 4 µM
same,Minimal inhibitory concentration (MIC) M. tuberculosis,[4]; [17],below 8 μM
same,remaining activity at 250 µM,[5],≤ 5%
same,activity at 100 µM,[6]; [12],93 ± 11%
same,IC50,[6],> 100 µM
same,activity at 100 µM,[7]; [16],26 ± 3%
same,IC50,[7]; [13],33 ± 4 µM
"C/C=C(/C(=C/C)c1ccc(O)cc1)c1ccc(O)cc1 [HTS hit 35, dienestrol]",remaining activity at 250 µM,[1],≤ 5%
same,MIC,[2]; [9],64 µM
same,MIC,[3]; [15],2 to 16 µM
same,MIC,[3]; [10],16 to 32 µM
same,MIC,[4]; [11],> 64 µM
same,remaining activity at 250 µM,[5],5 to 50%
"CC(C)n1c(/C=C/C(O)CC(O)CC(=O)O)c(-c2ccc(F)cc2)c2ccccc21 (stereo not drawn) [HTS hit 37, fluvastatin sodium salt]",remaining activity at 250 µM,[1],≤ 5%
same,MIC,[2]; [9],> 64 µM
same,MIC,[3]; [10],> 64 µM
same,MIC,[4]; [11],> 64 µM
same,remaining activity at 250 µM,[5],≤ 5%
same,activity at 100 µM,[6]; [12],0%
same,IC50,[6],7 ± 1 µM
same,IC50,[7],> 100 µM
same,activity at 100 µM,[7]; [14],96 ± 10%
"O=C(O)CCc1nc(-c2ccccc2)c(-c2ccccc2)o1 [HTS hit 43, oxaprozin]",remaining activity at 250 µM,[1],≥ 75%
same,IC50,[5],1 ± 0.5 µM
same,remaining activity at 250 µM,[5],≤ 5%
same,remaining activity at 50 µM,[5],20.3 ± 5.2%
same,activity at 100 µM,[6]; [12],100 ± 15%
same,IC50,[7]; [13],14 ± 2 µM
same,activity at 100 µM,[7]; [14],32 ± 3%
verteporfin [HTS hit 47],MIC,"[2]; assayed 0.125–64 μM, 10 h at 37 °C, BHI with 4% FBS",4 µM
same,Minimal inhibitory concentration (MIC) C. ammoniagenes,"[3]; assayed 0.125–64 μM, 16 h at 37 °C, BHI",2 to 4 µM
same,MIC,[4]; [17],8 µM
